Experimental data published in US12448491B2, “Nano-patterend conductive polymer substrate with improved cell alignment, maturity, adhesion, and connectivity and method for manufacturing same” (priority 2022, dated 2025).

How the values were obtained:
cardiomyocytes = assay: Drug screening on bare and embedded PDMS cantilevers (beat displacement); assay type: cell-based, rat; details: for displacement reduction: 10 nM drug; for contraction returned compared with before drug treatment: 24 h after media replacement
Text: To quantitatively analyze the correlation between cell maturation and drug toxicity, polymer cantilever arrays composed of the bare thin film and the embedded thin film were fabricated.

[1] = tested on: neonatal rat ventricular myocytes (NRVMs); assay: Comparison of NRVM and hiPSC-CM in drug test (NRVM); assay type: cell-based; details: animal cells
Text: (§1) There are several similarities and differences in the drug response between animal and human cardiomyocytes.

[2] = tested on: human-induced pluripotent stem cell-cardiomyocytes (hiPSC-CMs); assay: Comparison of NRVM and hiPSC-CM in drug test (hiPSC-CM); assay type: cell-based
Text: as §1

[3] = tested on: human-induced pluripotent stem cell-cardiomyocytes (hiPSC-CMs); assay: Drug screening for hiPSC-CMs on bare and embedded PDMS; assay type: cell-based; details: after 48 h
Method: Since pre-clinical studies on rats could not completely predict effects on the human heart, human-induced pluripotent stem cell-cardiomyocytes (hiPSC-CMs) had significant advantages over the use of animal models. To further investigate the responses of different drugs on immature and mature cardiomyocytes in human cells, hiPSC-CMs were cultured.

| displacement reduction (cardiomyocytes; bare PDMS cantilever) | displacement reduction (cardiomyocytes; embedded PDMS cantilever) | beating of cardiomyocytes (cardiomyocytes; 1 μM drug, cultured on bare PDMS) | beat rate level compared with the maximum displacement value (cardiomyocytes; 1 μM drug, cultured on embedded PDMS) [%] | contraction returned compared with before drug treatment (cardiomyocytes; bare PDMS cantilever) [%] | contraction returned compared with before drug treatment (cardiomyocytes; embedded PDMS cantilever) [%] | decreased contraction force returned after washing (cardiomyocytes; after washing for 48 h, AgNW-embedded PDMS substrate) [%] | beat behavior after washing (cardiomyocytes; after washing for 48 h, control bare PDMS) | IC50 (cardiomyocytes; cardiomyocytes cultured on bare PDMS thin film) [µM] | IC50 (cardiomyocytes; cardiomyocytes cultured on embedded PDMS thin film) [µM] | tendency of beat frequency and contraction with increasing drug ([2]; human cells) | resistance of cardiomyocytes to the drug (cardiomyocytes; cultured on embedded PDMS, FIGS. 17B and 17C) | SMILES | tendency of beat frequency and contraction with increasing drug [1] | IC50 ([2]; (b) of FIG. 20A, NRVM vs hiPSC-CM comparison, cell type of the value not stated) [µM] | contraction force returned after replacement of culture ([3]; hiPSC-CMs on bare PDMS) | contraction force returned after replacement of culture ([3]; hiPSC-CMs on embedded PDMS) [%] |
| --- | --- | --- | --- | --- | --- | --- | --- | --- | --- | --- | --- | --- | --- | --- | --- | --- |
| half displacement reduction | about 10% | no longer beat | 20 | 10 | ≥ 75 | 75 | not returned to the initial state | 0.174 | 0.521 | decrease only displacement |  | Cc1ccc2c(c1)C(=O)C1(O)CCN(c3ccccc3)C1=N2 (stereo not shown) [blebbistatin] | decrease both beat frequency and contraction force | ~1 | did not return | ≥ 70 |
|  |  |  |  |  |  |  |  |  |  |  | enhanced resistance | Cc1cccc(CCN2CCC(C(=O)c3ccc(NS(C)(=O)=O)cc3)CC2)n1 [E-4031] |  |  |  |  |
